Experimental data taken from patent US20080293090A1, “AUTOMATED SEMI-SOLID MATRIX ASSAY AND LIQUID HANDLER APPARATUS FOR THE SAME” (AVENTIS PHARMACEUTICALS INC., priority 2001, published 2008).
Structures can show the parent of a compound that is named as a salt.

Key:
Assay type in all cases: cell-based
tumor cells [1] = experiment: Traditional soft agar assay, 24-well tray, visual counting of colonies; conditions: for IC50: read-out: IC50s Determined from Colony Counting; for Average # of colonies: 24-well tray
Experimental: As a comparison, the same compounds were tested in the traditional hand-pipetted, 24-well plates, visually counted method. The only difference was that the soft agar assay used a 500 μL agarose layer in the 24-well plate and 75 uL/layer in the 96-well system, using the Sigma agarose. The 24-well plates were also counted visually, Table 5, and the IC50s determined, Table 6.

MDA-MB435 = experiment: Soft agar assay, flavopiridol on already formed one week colonies; conditions: Homo sapiens, MDA-MB-435, 168 h, added to colonies formed after 7 days of incubation, read-out: Flavopiridol IC50 (uM) on Formed Colonies, Average ± Standard Error
Experimental: (§1) 25 μL of 10 μM calcein AM (in HBSS) is added to each well and allowed to incubate at 37 deg. C. for at least one hour. The plate is then read in a Cytofluor™ 4000 (3 counts/well) with a gain of 40. The fluorescence for calcein AM (after cleavage in live cells) is excitation=485+20 nm and emission=530+20 nm.
(§2) For analysis, the data provided by the CytoFluor™ are analyzed in EXCEL™. The DMSO control wells are averaged and the standard deviation determined. Each compound well is then divided by the control average×100 for % control. The triplicate wells are averaged and the standard deviation determined. […] The background can be subtracted from each well. Statistical programs such as PRISM could also be used for the graphing and IC50 determination.
(§3) Flavopiridol is added to colonies formed after 7 days of incubation at 37 deg.

Colo 205 = experiment: as above; conditions: Homo sapiens, 168 h, added to colonies formed after 7 days of incubation, read-out: Flavopiridol IC50 (uM) on Formed Colonies, Average ± Standard Error
Experimental: as §1, §2, §3

tumor cells [2] = experiment: Soft agar assay, hand-pipetted 24-well plates, Calcein AM stained method
Experimental: (§4) 25 μL of 10 μM calcein AM (in HBSS) is added to each well and allowed to incubate at 37 deg. C. for at least one hour. […] The fluorescence for calcein AM (after cleavage in live cells) is excitation=485+20 nm and emission=530+20 nm. For analysis, the data provided by the CytoFluor™ are analyzed in EXCEL™. The DMSO control wells are averaged and the standard deviation determined. Each compound well is then divided by the control average×100 for % control. The triplicate wells are averaged and the standard deviation determined. There is some background fluorescence and the colonies treated after formation are not eliminated by the single two-week treatment. The background can be subtracted from each well. Statistical programs such as PRISM could also be used for the graphing and IC50 determination. […] As a comparison, the same compounds were tested in the traditional hand-pipetted, 24-well plates, visually counted method. The only difference was that the soft agar assay used a 500 μL agarose layer in the 24-well plate and 75 uL/layer in the 96-well system, using the Sigma agarose. The two methods produced similar results, i.e. IC50s for the compounds, see Table 4.

tumor cells [3] = experiment: Automated soft agar assay, 96-well plates, Calcein AM stained method; conditions: read-out: IC50s (μM) with Flavopiridol 96-well
Experimental: as §4, with “It was determined that when plating with the test compound, the individual components, i.e., agarose, cells and compound, were more evenly distributed if premixed in a separate plate before being transferred to the 96-well plate. The test compounds were made 10× in RPMI GM, which was diluted to a 1× compound concentration in the mixing plate. […] Satisfactory results were obtained with the following combinations: 25” for “25”

NCI-H460 = experiment: Soft agar assay, flavopiridol on already formed one week colonies; conditions: Homo sapiens, 168 h, added to colonies formed after 7 days of incubation, read-out: Flavopiridol IC50 (uM) on Formed Colonies, Average ± Standard Error
Experimental: as §1
(§5) For analysis, the data provided by the CytoFluor™ are analyzed in EXCEL™. The DMSO control wells are averaged and the standard deviation determined. Each compound well is then divided by the control average×100 for % control. The triplicate wells are averaged and the standard deviation determined. There is some background fluorescence and the colonies treated after formation are not eliminated by the single two-week treatment. The background can be subtracted from each well. Statistical programs such as PRISM could also be used for the graphing and IC50 determination.
(§6) Table 7. provides the IC50 in micromolar values obtained using flavopiridol on already formed colonies of a number of different cell lines (one week colonies). Flavopiridol is added to colonies formed after 7 days of incubation at […]. This method of adding compounds to already formed colonies may be more predictive for the compound's effectiveness against a tumor in vivo.

HL-60 = experiment: as above; conditions: Homo sapiens, 168 h, added to colonies formed after 7 days of incubation, read-out: Flavopiridol IC50 (uM) on Formed Colonies, Average ± Standard Error
Experimental: as §1, §5, §6

PC-3 = experiment: as above; conditions: Homo sapiens, 168 h, added to colonies formed after 7 days of incubation, read-out: Flavopiridol IC50 (uM) on Formed Colonies, Average ± Standard Error
Experimental: as §1, §5, §6

[4] = flavopiridol added immediately after plating

IC50 (tumor cells [1]; added immediately after plating, 24-well, visual counting): 400 nM
IC50s Determined from Colony Counting (tumor cells [1]; added to 1-week colonies, 24-well, visual counting): did not reach 50% control.
IC50 (tumor cells [1]; plated with Flavo, 24-well, visual counting): 90 nM
IC50 (MDA-MB435): 2.2 ± 0.09 µM
IC50 (Colo 205): 1.4 ± 0.06 µM
IC50 (tumor cells [2]; cells plated with flavopiridol): 0.08 µM
IC50 (tumor cells [2]; [4]): 0.4 µM
IC50 (tumor cells [3]; 168 h, flavopiridol added to one week colonies): 1 µM
IC50 (tumor cells [3]; cells plated with flavopiridol): 0.15 µM
IC50 (tumor cells [3]; [4]): 0.6 µM
IC50 (NCI-H460): 2.4 ± 0.1 µM
IC50 (HL-60): 1.6 ± 0.15 µM
IC50 (PC-3): 1.7 ± 0.04 µM
Structure (SMILES): CN1CC[C@H](c2c(O)cc(O)c3c(=O)cc(-c4ccccc4Cl)oc23)[C@H](O)C1 [Flavopiridol, (cis-(−)-5,7-Dihydroxy-2-(2-chlorophenyl)-8-[4-(3-hydroxy-1-methyl)piperidinyl]-4H-1-benzopyran-4-one hydrochloride dihydrate]
Average # of colonies (tumor cells [1]; flavopiridol added immediately after plating, 0.00032 μM): 30
Average # of colonies (tumor cells [1]; flavopiridol added immediately after plating, 0.0016 μM): 30
Average # of colonies (tumor cells [1]; flavopiridol added immediately after plating, 0.008 μM): 32
Average # of colonies (tumor cells [1]; flavopiridol added immediately after plating, 0.04 μM): 26
Average # of colonies (tumor cells [1]; flavopiridol added immediately after plating, 0.2 μM): 27
Average # of colonies (tumor cells [1]; flavopiridol added immediately after plating, 1 μM): 0
Average # of colonies (tumor cells [1]; flavopiridol added immediately after plating, 5 μM): 0
Average # of colonies (tumor cells [1]; flavopiridol added to one-week colonies, 0.0032 μM): 34.0
Average # of colonies (tumor cells [1]; flavopiridol added to one-week colonies, 0.016 μM): 35.0
Average # of colonies (tumor cells [1]; flavopiridol added to one-week colonies, 0.08 μM): 32.0
Average # of colonies (tumor cells [1]; flavopiridol added to one-week colonies, 0.4 μM): 33
Average # of colonies (tumor cells [1]; flavopiridol added to one-week colonies, 2 μM): 25
Average # of colonies (tumor cells [1]; flavopiridol added to one-week colonies, 10 μM): 32
Average # of colonies (tumor cells [1]; flavopiridol added to one-week colonies, 50 μM): 20
Average # of colonies (tumor cells [1]; plated with flavopiridol, 0.00032 μM): 27
Average # of colonies (tumor cells [1]; plated with flavopiridol, 0.0016 μM): 25
Average # of colonies (tumor cells [1]; plated with flavopiridol, 0.008 μM): 22
Average # of colonies (tumor cells [1]; plated with flavopiridol, 0.04 μM): 25
Average # of colonies (tumor cells [1]; plated with flavopiridol, 0.2 μM): 0
Average # of colonies (tumor cells [1]; plated with flavopiridol, 1 μM): 0
Average # of colonies (tumor cells [1]; plated with flavopiridol, 5 μM): 0
